{
  "source": "patent US20230278972A1",
  "about": "“SUBSTITUTED HALOALKYL SULFONANILIDE HERBICIDES” (FMC Corporation, priority 2020, published 2023)",
  "assay_type_in_all_cases": "in vivo",
  "key": {"[1]": {"tested_on": "goosegrass (Eleusine indica)", "experiment": "Test A1 postemergence, goosegrass", "method_in_brief": "(§1)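 Both timings started from seed in a loam-sand blend. Preemergence pots got a directed soil application immediately; postemergence pots were sprayed when seedlings had one or two leaves and stood 2–10 cm. Each compound was prepared in a non-phytotoxic solvent plus surfactant.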"}, "[2]": {"tested_on": "Pigweed, Palmer (palmer amaranth, palmer pigweed, Amaranthus palmeri)", "experiment": "Test A1 postemergence, Pigweed, Palmer", "method_in_brief": "as §1"}, "[3]": {"tested_on": "soybean (Glycine max)", "experiment": "Test A1 postemergence, soybean", "method_in_brief": "as §1"}, "[4]": {"tested_on": "blackgrass (Alopecurus myosuroides)", "experiment": "Test A1 preemergence, blackgrass", "method_in_brief": "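Herbicidal response was scored on plants treated either preemergence, by directed spray onto soil of a loam–sand blend after sowing, or postemergence on potted plants at the one- to two-leaf stage, 2–10 cm high. Test chemicals were carried in a non-phytotoxic solvent mix with surfactant.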"}, "[5]": {"details": "31 g ai/ha, postemergence, 0 to 100 scale (0 no effect, 100 complete control)"}, "[6]": {"details": "Postemergence, 125 g ai/ha, 0 to 100 scale"}},
  "data": [
    {"smiles": "Cc1c(NS(=O)(=O)C(F)(F)F)cc(C(=O)N2CCC(C)CC2)c(C)c1C", "note": "[Compound 366]", "values": [
      {"measurement": "Goosegrass plant response rating", "setting": "[1]; [5]", "value": 0},
      {"measurement": "Plant response rating, Goosegrass", "setting": "[1]; [6]", "value": 80},
      {"measurement": "Pigweed, Palmer plant response rating", "setting": "[2]; [5]", "value": 10},
      {"measurement": "Plant response rating, Pigweed, Palmer", "setting": "[2]; [6]", "value": 20},
      {"measurement": "Soybean plant response rating", "setting": "[3]; [5]", "value": 50},
      {"measurement": "Plant response rating, Soybean", "setting": "[3]; [6]", "value": 60},
      {"measurement": "Plant response rating, Blackgrass", "setting": "[4]; 31 g ai/ha, 0 to 100 scale (0 no effect, 100 complete control)", "value": 0},
      {"measurement": "Plant response rating, Blackgrass", "setting": "[4]; 125 g ai/ha, 0 to 100 scale, 0 no effect, 100 complete control", "value": 50}
    ]}
  ]
}
